Data: ChEMBL document CHEMBL1127581, “Evolution of a novel series of [(N,N-dimethylamino)propyl]- and piperazinylbenzanilides as the first selective 5-HT1D antagonists” (J Med Chem, 1994)

Target: T1, Adrenergic receptor alpha-2 (Homo sapiens, UniProt P08913+P18825+P18089)
T1 sequence (P08913 whole entry): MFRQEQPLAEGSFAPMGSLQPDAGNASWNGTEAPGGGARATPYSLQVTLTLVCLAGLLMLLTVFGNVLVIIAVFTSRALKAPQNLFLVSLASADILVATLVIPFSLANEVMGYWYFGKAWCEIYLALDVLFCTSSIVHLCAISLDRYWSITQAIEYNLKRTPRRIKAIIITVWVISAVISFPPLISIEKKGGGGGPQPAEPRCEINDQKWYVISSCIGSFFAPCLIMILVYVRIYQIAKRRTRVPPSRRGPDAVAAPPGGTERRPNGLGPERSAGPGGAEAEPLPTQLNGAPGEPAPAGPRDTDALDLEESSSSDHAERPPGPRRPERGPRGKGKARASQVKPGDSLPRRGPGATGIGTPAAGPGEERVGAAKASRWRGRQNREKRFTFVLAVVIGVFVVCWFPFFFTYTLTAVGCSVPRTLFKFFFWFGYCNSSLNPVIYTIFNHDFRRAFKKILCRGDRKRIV
T1 sequence (P18825 whole entry): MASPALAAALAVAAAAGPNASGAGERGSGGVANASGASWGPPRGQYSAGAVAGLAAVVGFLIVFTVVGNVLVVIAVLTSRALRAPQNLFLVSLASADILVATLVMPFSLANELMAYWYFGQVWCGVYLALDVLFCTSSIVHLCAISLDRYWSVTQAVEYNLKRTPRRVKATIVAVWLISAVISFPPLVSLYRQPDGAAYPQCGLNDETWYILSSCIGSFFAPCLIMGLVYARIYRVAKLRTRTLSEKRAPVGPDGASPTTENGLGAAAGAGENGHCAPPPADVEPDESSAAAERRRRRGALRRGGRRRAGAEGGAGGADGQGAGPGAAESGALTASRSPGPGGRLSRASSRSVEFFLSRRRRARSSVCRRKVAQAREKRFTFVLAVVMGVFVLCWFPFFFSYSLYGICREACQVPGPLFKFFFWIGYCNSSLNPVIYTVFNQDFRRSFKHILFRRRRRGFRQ
T1 sequence (P18089 whole entry): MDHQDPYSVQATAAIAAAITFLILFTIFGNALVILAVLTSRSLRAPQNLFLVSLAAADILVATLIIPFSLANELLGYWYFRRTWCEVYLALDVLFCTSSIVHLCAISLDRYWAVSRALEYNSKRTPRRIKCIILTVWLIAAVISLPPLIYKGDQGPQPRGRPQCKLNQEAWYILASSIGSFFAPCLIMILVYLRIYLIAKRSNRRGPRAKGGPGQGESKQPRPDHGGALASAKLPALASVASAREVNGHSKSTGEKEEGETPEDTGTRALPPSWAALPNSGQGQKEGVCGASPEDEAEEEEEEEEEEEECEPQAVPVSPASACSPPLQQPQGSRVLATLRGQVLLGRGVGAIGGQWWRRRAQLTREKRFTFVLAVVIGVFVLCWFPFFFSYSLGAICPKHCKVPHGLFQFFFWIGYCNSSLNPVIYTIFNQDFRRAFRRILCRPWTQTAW
Assay: Binding affinity against alpha-2 adrenoceptor
Assay type: protein assay

Log Ki: > -6
Compound: COc1ccc(NC(=O)c2ccc(-c3ccc(-c4noc(C)n4)cc3C)cc2)cc1N1CCN(C)CC1 [GR-127935]
